The subject of data set [1] is Mycobacterium tuberculosis. Put plainly: Antimycobacterial activity against Mycobacterium tuberculosis H37Rv assessed as inhibition of bacterial growth incubated for 7 to 14 days by MABA assay. In kind it is functional. Conditions: time 7-14 day. In general terms: The colour change of resazurin is a common sign of viable cells or microbes.
Data set [2] in a line: Aqueous solubility of compound at pH 7.4. In kind it is physicochemical. Conditions: buffer.
Data set [3] concerns Mycobacterium tuberculosis. Put plainly: Antibacterial activity against Mycobacterium tuberculosis H37Rv assessed as inhibition of bacterial growth incubated for 6 days by microplate alamar blue assay. Conditions: 144 h, time 6 day. In kind it is functional.
Data set [4] concerns Mycobacterium tuberculosis. Put plainly: Antibacterial activity against Mycobacterium tuberculosis H37Rv assessed as reduction in microbial growth. In kind it is functional.
The nature of data set [5]: Aqueous solubility of compound at pH 7.4 measured for 1 hr by UV-plate reader analysis. It counts as physicochemical. Conditions: buffer.
The subject of data set [6] is Mycobacterium tuberculosis. Put plainly: Antimycobacterial activity against Mycobacterium tuberculosis K204 assessed as inhibition of bacterial growth measured after 6 days by alamar blue dye based assay. Conditions: K204, 144 h, time 6 day. In kind it is functional.
Data set [7] is described as follows: Aqueous solubility of compound at pH 7.4 by HPLC-MS/MS analysis. It counts as physicochemical. Conditions: buffer.
Data set [8] relates to Mycolicibacterium smegmatis. Put plainly: Antimycobacterial activity against Mycobacterium smegmatis ATCC607 assessed as inhibition of bacterial growth measured after 48 hrs by broth microdilution method. It counts as functional. For orientation: Dilution methods test growth across graded concentrations, often in twofold steps.
The subject of data set [9] is Mycobacterium tuberculosis. Put plainly: Antimycobacterial activity against Mycobacterium tuberculosis H37Rv assessed as reduction in bacterial cell growth by resazurin reduction method. It counts as functional.
Data set [10] can be described thus: Aqueous solubility of compound at pH 2.0 measured for 1 hr by UV-plate reader analysis. In kind it is physicochemical. Conditions: buffer.
Data set [11] is described as follows: Aqueous solubility of compound in PBS at pH 6.5 incubated for 24 hrs by HPLC-MS/MS analysis. It counts as physicochemical.
The subject of a further data set is Mycobacterium avium. Put plainly: Antibacterial activity against Mycobacterium avium ATCC 25291 assessed as inhibition of bacterial growth incubated for 2 to 3 weeks by resazurin dye based assay. It counts as functional. Conditions: time 2-3 weeks.
Data set [12] relates to Mycobacterium tuberculosis. Put plainly: Antimycobacterial activity against Mycobacterium tuberculosis H37Rv mc2 6206 assessed as inhibition of bacterial growth measured after 7 days by visual analysis. In kind it is functional. Conditions: H37Rv mc2 6206, 168 h, time 7 day.
In a further data set the test system is Acinetobacter baumannii. Put plainly: Antibacterial activity against Acinetobacter baumannii harboring RpoB H535Q mutant assessed as fold change in MIC incubated for 20 hrs by CLSI based microbroth dilution method. In kind it is functional.
Data set [13] has as its system Mycolicibacterium smegmatis. Put plainly: Antimycobacterial activity against Mycobacterium smegmatis 700084 assessed as inhibition of microbial growth incubated for 48 hrs by resazurin dye based broth microdilution method. In kind it is functional.
Data set [14] deals with Mycobacterium tuberculosis. Put plainly: Antibacterial activity against Mycobacterium tuberculosis H37Rv assessed as bacterial growth inhibition. It counts as functional.

≈ marks a conversion by molar mass, not a printed value.

The MIC is the lowest concentration found to suppress growth. Broadly, the solubility is the dissolved amount per volume that the medium holds. For `O=[N+]([O-])c1cn2c(n1)OC[C@@H](OCc1ccc(-c3ccc(OC(F)(F)F)c(F)c3)nc1)C2`, in data set [1], the minimal inhibitory concentration (MIC) came out at 0.025 µM (≈ 0.0114 µg/mL). Besides, the solubility in data set [2] came to 3 µg/mL (≈ 6.6 µM).
Consider `COc1nc2ccc(C#N)cc2cc1[C@H](c1ccccc1)[C@](O)(CCN(C)C)c1ccccc1`, for which the minimum inhibitory concentration (MIC) in data set [3] was 0.09 µg/mL (≈ 0.199 µM).
Take `C[C@]1(COc2ccc(-n3cc(COc4ccc(OC(F)(F)F)cc4)nn3)cc2)Cn2cc([N+](=O)[O-])nc2O1`: the MIC in data set [4] was found to be 0.12 µg/mL. This molecule also displayed a solubility at 1 h in [5] of under 1 µg/mL.
Regarding `O=[N+]([O-])c1cn2c(n1)OC[C@@H](OCc1ccn(-c3ccc(OC(F)(F)F)cc3)n1)C2`, the MIC in [6] was 0.05 µM (≈ 0.0213 µg/mL).
In the case of `Cn1nc(-c2ccc(OC(F)(F)F)cc2)cc1CO[C@@H]1COc2nc([N+](=O)[O-])cn2C1`, the solubility in data set [7] was determined as 23 µg/mL (≈ 52.4 µM). Also, the MIC in data set [6] is 0.06 µM (≈ 0.0264 µg/mL).
For `COc1nc2ccc(Br)cc2cc1[C@@H](c1ccccc1)[C@@](O)(CCN(C)C)c1cccc2ccccc12` [BEDAQUILINE], in data set [8], the MIC was determined as 0.015 µg/mL (≈ 0.027 µM).
Take `C[C@]1(CN2CCc3nc(-c4ccc(F)cc4)ccc3C2)Cn2cc([N+](=O)[O-])nc2O1`: the MIC in [9] was found to be 0.25 µg/mL (≈ 0.611 µM). In [10], the solubility at 1 h was 130 µM (≈ 53 µg/mL). In addition, the concentration in solution in data set [11] (solubility at 24 h) came to 3.35 µM (≈ 1.37 µg/mL).
With `O=[N+]([O-])c1cn2c(n1)OC[C@@H](OCc1ccc(-c3ccc(OC(F)(F)F)cc3)nc1)C2` [TBA-354], in data set [1], the MIC was 0.005 µM (≈ 0.00218 µg/mL). For the same molecule, the solubility in data set [2] worked out at 2.3 µg/mL (≈ 5.27 µM).
With `O=[N+]([O-])c1cn2c(n1)OC[C@@H](OCc1ccc(-c3ccc(OC(F)(F)F)c(F)c3)cc1)C2`, the MIC with Mycobacterium avium stood at 0.03 µM (≈ 0.0136 µg/mL).
Same read-out and setting: the figure for `O=[N+]([O-])c1cn2c(n1)OC[C@@H](OCc1ccc(-c3ccc(OC(F)(F)F)cc3)cc1)C2` is 0.035 µM (≈ 0.0152 µg/mL).
Turning to `C[C@]1(CN2CCc3nc(-c4ccccc4)ccc3C2)Cn2cc([N+](=O)[O-])nc2O1`, the MIC in [9] was under 0.031 µg/mL. In data set [10], this molecule showed a solubility at 1 h of 143 µM (≈ 56.2 µg/mL). The molecule further came in with a solubility at 24 h in [11] of 9.41 µM (≈ 3.68 µg/mL).
Turning to `O=[N+]([O-])c1cn2c(n1)OC[C@@H](OCc1ccc(-c3ccc(OC(F)(F)F)c(Cl)c3)cc1)C2`, in the data set with Mycobacterium avium, the MIC amounted to 0.03 µM (≈ 0.0141 µg/mL).
`C[C@]1(COc2ccc(N3CCC(Oc4ccc(OC(F)(F)F)cc4)CC3)cc2)Cn2cc([N+](=O)[O-])nc2O1`: the results for the MIC in data set [8] and in data set [12] were 0.03 µg/mL (≈ 0.0561 µM) and 0.007 µg/mL (≈ 0.0131 µM), respectively.
Consider `C[C@]1(CN2CCc3nc(-c4cc(F)c(F)c(F)c4)ccc3C2)Cn2cc([N+](=O)[O-])nc2O1`, for which the MIC in data set [9] amounted to 0.08 µg/mL (≈ 0.18 µM). In data set [10], the solubility at 1 h is over 200 µM. The molecule further displayed a solubility at 24 h in data set [11] of under 1 µM.
On to `O=[N+]([O-])c1cn2c(n1)OC[C@@H](OCc1nnn(-c3ccc(OC(F)(F)F)cc3)n1)C2`, for which the minimal inhibitory concentration (MIC) in data set [6] was found to be 0.035 µM (≈ 0.015 µg/mL).
With `O=[N+]([O-])c1cn2c(n1)OC[C@@H](OCc1ccc(OC(F)(F)F)cc1)C2` [PRETOMANID], the “fold change (FC)” value with Acinetobacter baumannii is over 13. Moreover, the MIC in [13] was determined as 0.03 µg/mL; in data set [8] it was 0.03 µg/mL (≈ 0.0835 µM).
Consider `C[C@]1(COc2ccc(S(=O)(=O)N3CCOCC3)cc2)Cn2cc([N+](=O)[O-])nc2O1`, for which the MIC in [14] worked out at 0.37 µg/mL (≈ 0.872 µM). The concentration in solution in data set [5] (solubility at 1 h) was 20 µg/mL (≈ 47.1 µM).

For the origin of these results see ChEMBL document CHEMBL5528062 (J Med Chem, 2024).
